Results reported in patent publication US20080300317A1 (Chevron U.S.A. Inc., priority 2007, published 2008).
pEC50: −log10 of the molar value. Counter-ions that a name gives are not always drawn. Like-named read-outs stand apart in the source and are kept apart here.

Key:
[1] = test system: influenza A/PR/8/34 (H1N1); test: microbe, parasite or virus in culture; type: cell-based, influenza A virus
influenza A/WS/33 (H1N1) = test: microbe, parasite or virus in culture; type: cell-based, influenza A virus
[2] = test system: influenza A/HK/8/68 (H3N2); test: microbe, parasite or virus in culture; type: cell-based, influenza A virus
influenza B/GL/1739/54 = test: Anti-viral EC50 experiment, survival of virus-infected Vero cells; type: cell-based, influenza B virus
Method: The following MDT compounds were tested: MDT-1, MDT-3, MDT-10, MDT-11, MDT-12, MDT-13, MDT-14, MDT-15, MDT-16, MDT-22, MDT-23, MDT-24, MDT-26, MDT-27, MDT-28, MDT-29, MDT-30, MDT-31, MDT-32, MDT-33, MDT-34, MDT-40, MDT-41, MDT-42, MDT-43, MDT-44, MDT-45, MDT-46, MDT-47, MDT-48, MDT-49, MDT-50, MDT-51, MDT-53, MDT-56, MDT-57, MDT-58, MDT-59, MDT-60, MDT-61, MDT-62, MDT-63, MDT-65, MDT-67, MDT-68 and MDT-69. […] Amantadine and rimantadine are both adamantane derivatives.
Compound diluents were dimethyl sulfoxide (DMSO), Molecusol ((2-hydroxypropyl)-β-cyclodextrin; Sigma H107), propylene-glycol (PG) and deionized water. Diluents were used singly or in combination as necessary to dissolve the compounds.
The medium used for the cell lines was 1× Minimal Essential Medium (MEM) (Invitrogen) supplemented with 1% L-glutamine, 1% penicillin-streptomycin, 0.125% bovine serum albumin (BSA), and 1 μg/ml of TPCK-trypsin.
The viruses tested were influenza A/PR/8/34 (H1N1), influenza A/WS/33 (H1N1), influenza A/HK/8/68 (H3N2) and influenza B/GL/1739/54 (no H, N subtyping). Cells used were the Vero line of African green monkey, normal kidney cells. All viruses and cells were obtained from The American Type Culture Collection (Rockville, Md.). Cells were grown in an atmosphere of 4-6% CO2 at 34-38° C. in MEM with 5% fetal bovine serum (FBS), 2 mM glutamine, and 1% penicillin-streptomycin solution to maintain exponential growth.
The Vero cells were plated on Day 0. On Day 1, cells were infected with virus and incubated with various concentrations of test compounds. […] On Day 4 the cells were fixed and stained. […] Cell survival due to exposure to test compound was indicative of anti-viral activity.

[3] = test system: 3 strains of influenza A virus and one strain of influenza B virus; type: cell-based; conditions: Vero cells; screening at 50, 10, 5 and 1 μM; all four influenza strains
[4] = Table 3, Vero cells, H1N1, n at least 2, No effic. = no efficacy measured, read-out: EC50 Virus A/PR/8/34
[5] = Table 3, Vero cells, H1N1, n at least 2, No effic. = no efficacy measured, read-out: EC50 Virus A/WS/33
[6] = Table 3, Vero cells, H3N2, n at least 2, No effic. = no efficacy measured
[7] = Table 3, Vero cells, n at least 2, No effic. = no efficacy measured
[8] = Table 3, MDT compounds, No Tox. = no cytotoxicity measured
[9] = Influenza A virus, Vero, Table 4, controls, cutoff control values compiled through many experiments
[10] = Influenza A virus, H1N1, Vero, Table 4, controls, cutoff control values compiled through many experiments
[11] = Influenza A virus, H3N2, Vero, Table 4, controls, cutoff control values compiled through many experiments
[12] = Influenza B virus, Vero, Table 4, controls, cutoff control values, determined over only 2 experiments
[13] = Table 3, Vero cells, H1N1, n at least 2, No effic. = no efficacy measured
[14] = Table 3, Vero cells, H3N2, n at least 2, No effic. = no efficacy measured, read-out: EC50 Virus A/HK/8/68
[15] = Influenza A virus, Table 3, Vero cells, H1N1, n at least 2, No effic. = no efficacy measured
[16] = Table 4, controls, No Tox = no cytotoxicity measured

Compound	pEC50 [1, 4]	pEC50 (influenza A/WS/33 (H1N1); [5])	EC50 Virus A/HK/8/68 [2, 6]	Cytotoxicity (Vero cells; [8])	EC50 Virus B/GL/1739/54 (influenza B/GL/1739/54; [7])	further results
2-aminotriamantane [MDT-50]	7.70	6.43	No Effic.	10 or above μM	–	pEC50 (influenza B/GL/1739/54; [7]): > 6.00
NC12CC3CC(CC(C3)C1)C2 [Amantadine, 1-aminoadamantane hydrochloride, reference compound]	–	–	–	–	–	pEC50 [1, 9]: ≤ 4.30; pEC50 (influenza A/WS/33 (H1N1); [10]): ≤ 5.00; pEC50 [2, 11]: ≥ 6.00; pEC50 (influenza B/GL/1739/54; [12]): ≤ 4.70
NC12CC3C4CC5CC3C(C1)C(C5)C4C2 [MDT-3, 4-aminodiamantane]	–	–	–	10 or above μM	No Effic.	EC50 Virus A/PR/8/34 [1, 13]: No Effic.; EC50 Virus A/WS/33 (influenza A/WS/33 (H1N1); [13]): No Effic.; pEC50 [2, 14]: > 6.90
CC12CC3CC4C5CC(N)(CC41)CC2C5C3 [MDT-24, 1-methyl-4-aminodiamantane]	–	–	–	No Tox.	No Effic.	EC50 Virus A/PR/8/34 [1, 13]: No Effic.; EC50 Virus A/WS/33 (influenza A/WS/33 (H1N1); [13]): No Effic.; pEC50 [2, 14]: 7.15
O=NC12CC3CC4C5CC(CC41)CC2C5C3 [MDT-26, 1-nitrosodiamantane]	6.85	6.10	No Effic.	No Tox.	No Effic.	–
O=NC12CC3C4CC5CC3C(C1)C(C5)C4C2 [MDT-27, 4-nitrosodiamantane]	7.70	6.44	No Effic.	No Tox.	No Effic.	–
OC12C3CC4CC5C3CC3C6CC(CC31)CC2(C4)C56 [MDT-40, 2-hydroxytriamantane]	5.72	4.60	No Effic.	No Tox.	No Effic.	–
OC12CC3CC4C1CC1C5CC6CC1C2C(C6)(C3)C54 (centres unmarked) [MDT-41, 3-hydroxytriamantane]	–	–	No Effic.	No Tox.	No Effic.	pEC50 [1, 15]: 6.21; pEC50 (influenza A/WS/33 (H1N1); [15]): 5.26
OC12CC3C4CC5C6CC7CC5C(C4C1)C(C7)(C2)C63 [MDT-42, 9-hydroxytriamantane]	–	–	No Effic.	No Tox.	No Effic.	pEC50 [1, 15]: 7.10; pEC50 (influenza A/WS/33 (H1N1); [15]): 5.60
CC12CC3CC4C1CC1CC2C(N)(C3)C4(C)C1 (centres unmarked) [MDT-43, 1,6-dimethyl-2-aminodiamantane]	7.22	6.09	No Effic.	10 or above μM	No Effic.	–
CC12CC3CC4C1CC1CC2C(O)(C3)C4(C)C1 (centres unmarked) [MDT-44, 1,6-dimethyl-2-hydroxydiamantane]	7.30	6.21	No Effic.	No Tox.	No Effic.	–
CC12CC3CC4C1CC1(O)CC2C(C3)C4(C)C1 [MDT-45, 1,6-dimethyl-4-hydroxydiamantane]	7.70	6.52	No Effic.	No Tox.	No Effic.	–
CC12CC3CC4C1CC1(C(=O)O)CC2C(C3)C4(C)C1 [MDT-46, 1,6-dimethyl-4-diamantanecarboxylic acid]	> 6.90	> 6.90	No Effic.	No Tox.	No Effic.	–
CC12CC3C4CC5(C)CC3C(C1)C(O)(C5)C4C2 [MDT-47, 4,9-dimethyl-1-hydroxydiamantane]	> 6.90	6.34	No Effic.	No Tox.	No Effic.	–
CC(N)C12CC3CC4C5CC(CC41)CC2C5C3 (centres unmarked) [MDT-57, 1-(1-aminoethyl)diamantane]	–	–	–	50 or above μM	No Effic.	EC50 Virus A/PR/8/34 [1, 13]: No Effic.; EC50 Virus A/WS/33 (influenza A/WS/33 (H1N1); [13]): No Effic.; pEC50 [2, 14]: 6.80
NCC12CC3C4CC5CC3C(C1)C(C5)C4C2 [MDT-61, 4-diamantanemethylamine]	–	–	–	50 or above μM	No Effic.	EC50 Virus A/PR/8/34 [1, 13]: No Effic.; EC50 Virus A/WS/33 (influenza A/WS/33 (H1N1); [13]): No Effic.; pEC50 [2, 14]: 7.00
CC(N)C12CC3C4CC5CC3C(C1)C(C5)C4C2 (centres unmarked) [MDT-62, 4-(1-aminoethyl)diamantane]	6.55	5.71	No Effic.	50 or above μM	No Effic.	–
CC(N)C12CC3C4CC5CC(C(C1)C3(C)C5)C4(C)C2 (centres unmarked) [MDT-68, 1,6-dimethyl-4-diamantane-4′-methyl-methyleneamine]	–	–	–	–	–	anti-viral activity under the conditions tested [3]: did not exhibit anti-viral activity
CCOC(=O)C1=C[C@@H](OC(CC)CC)[C@H](NC(C)=O)[C@@H](N)C1 [Oseltamivir, reference compound]	–	–	–	–	–	pEC50 [1, 9]: ≤ 5.00; pEC50 (influenza A/WS/33 (H1N1); [10]): ≤ 5.30; pEC50 [2, 11]: ≥ 6.00; pEC50 (influenza B/GL/1739/54; [12]): ≤ 4.82; Cytotoxicity (Vero cells; [16]): No Tox.
CC(N)C12CC3CC(CC(C3)C1)C2.Cl (stereo not drawn) [Rimantadine, alpha-methyl-1-adamantanemethylamine hydrochloride, reference compound]	–	–	–	–	–	pEC50 [1, 9]: ≤ 6.00; pEC50 (influenza A/WS/33 (H1N1); [10]): ≤ 4.30; pEC50 [2, 11]: ≥ 6.00; pEC50 (influenza B/GL/1739/54; [12]): ≤ 4.30; Cytotoxicity (Vero cells; [16]): No Tox.
